“Also recorded” adds a separate entry of the source.
How the values were obtained:
[1] = target: T1, TARS (Homo sapiens, UniProt P26639); experiment: Ap4G formation assay (TLC, [α-32P]-GTP); type: biochemical; parameters: His6 (N); made in house; host or cells: E. coli Rosetta 2 (DE3)pLysS, plasmid pET28a hctThrRS; settings: human TARS, 10 μM compound
T1 sequence (P26639 1-723): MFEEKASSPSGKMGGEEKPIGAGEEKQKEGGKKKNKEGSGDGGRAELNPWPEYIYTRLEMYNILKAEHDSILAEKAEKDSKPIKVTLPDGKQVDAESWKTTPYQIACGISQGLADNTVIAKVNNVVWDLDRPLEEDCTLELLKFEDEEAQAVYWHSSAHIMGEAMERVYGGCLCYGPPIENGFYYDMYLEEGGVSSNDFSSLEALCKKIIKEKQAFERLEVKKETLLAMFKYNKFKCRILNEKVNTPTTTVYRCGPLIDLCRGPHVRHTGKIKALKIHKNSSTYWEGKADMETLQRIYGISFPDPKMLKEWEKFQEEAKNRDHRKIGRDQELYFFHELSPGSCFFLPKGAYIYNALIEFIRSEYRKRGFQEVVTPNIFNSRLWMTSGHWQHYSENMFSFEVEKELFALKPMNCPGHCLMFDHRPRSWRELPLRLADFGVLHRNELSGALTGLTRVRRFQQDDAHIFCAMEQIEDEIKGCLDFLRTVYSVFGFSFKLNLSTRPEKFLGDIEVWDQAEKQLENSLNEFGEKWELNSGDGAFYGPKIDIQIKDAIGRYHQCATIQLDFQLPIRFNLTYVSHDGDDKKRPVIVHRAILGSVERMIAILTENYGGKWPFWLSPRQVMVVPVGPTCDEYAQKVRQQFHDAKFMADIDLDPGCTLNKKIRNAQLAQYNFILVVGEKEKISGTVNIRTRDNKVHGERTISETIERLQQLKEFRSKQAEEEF

[2] = target: T1, TARS; experiment: Ki of borrelidin compounds for TARS; type: biochemical; settings: calculated; data not shown
[3] = system: SKOV-3 cells; experiment: HIF-1α stabilization in hypoxia (Western blot); type: cell-based; settings: for HIF-1α protein stabilization: hypoxia (2% O2), 6 h
Method: After treatments, cells were harvested into sample buffer containing: 0.2 M Tris-HCL, 4% SDS, 4% β-mercaptoethanol, 40% glycerol, 4 μM pyronin Y. Extracts were sheared through a 24-gauge syringe. Samples were separated by 10% SDS-PAGE and transferred to nitrocellulose membrane and probed with rabbit polyclonal anti-TARS (1:500; Santa Cruz Biotechnology, Dallas, Tex.) or monoclonal anti-HIF-1α (BD Transduction Laboratories, [BD Biosciences, San Jose, Calif.]) (Lounsbury, Beddow et al. 1994). Secondary antibodies were HRP-goat-anti-mouse and HRP-goat-anti-rabbit (1:5,000; Jackson Laboratories, Bar Harbor, Me.).

[4] = target: T1, TARS; experiment: Ap4A formation assay (TLC, [α-32P]-ATP); type: biochemical; parameters: His6 (N); made in house; host or cells: E. coli Rosetta 2 (DE3)pLysS, plasmid pET28a hctThrRS; settings: 10 μM compound
[5] = target: T1, TARS; experiment: GTPase (GTP hydrolysis) assay; type: biochemical; parameters: His6 (N); made in house; host or cells: E. coli Rosetta 2 (DE3)pLysS, plasmid pET28a hctThrRS; settings: 10 μM compound
[6] = LARS steady state ATPase activity (32P-ATP to AMP); type: biochemical; settings: 1 μM human LARS
Method: LARS steady state ATPase activity was determined using the same procedure as for TARS aminoacylation with the following modifications. […] ATP (PerkinElmer, Waltham, Mass.) was added. Reactions were incubated for 3 minutes at 37° C. and initiated with the addition of 1 μM human LARS. At various time points 5 μl aliquots were quenched in 45 μl of 500 mM sodium acetate and 0.1% sodium dodecyl sulfate. For each sample, 1 μl was spotted onto a CCM cellulose PEI F plates (EMD) and resolved via thin-layer chromatography in 0.75 M potassium phosphate buffer mobile phase. Radioactive signals were detected via phosphorimaging and AMP production overtime was quantified using Quantity One v 4.6.6 software (Bio-Rad, Hercules, Calif.).

[7] = system: chorioallantoic membrane (CAM) of chicken embryos; experiment: Chick chorioallantoic membrane (CAM) assay; type: in vivo; settings: purified protein applied daily to gelfoam sponge, 72 h
Method: Chick Chorioallantoic Membrane Assay—
Fertilized chicken eggs (Sunrise Farms, Catskill, N.Y.) day 1-2 post-laying were incubated in a humidified incubator at 37° C. for 72 h. Cleaned eggs were cracked and plated in a sterile 10 cm^2 tissue culture-treated dish and incubated at 37° C. for another 7 days. On developmental day 10, 1 mm^3 sterile gelatin sponge pieces (Surgifoam®; Johnson & Johnson Wound Management, Somerville, N.J.) were placed within the outer one-third of the membrane between large vessels. […] All compounds were applied in 10 μl to the CAM every 24 h for 72 h. Images were taken using a Leica MZ6 stereomicroscope every 24 h. Compounds were scored according to a modified version of Intensity Scoring as previously described (Ribatti, Nico et al. 2006). Briefly, each experimental condition was given a blinded score from 0-5 based on the change in the extent of vessel convergence and formation in proximity to the sponge from day 0 to day 3. Total score is averaged individual experimental condition scores from at least 15 replicates.
Fertilized chicken embryos were cultured ex-ova and, starting at developmental day 10, agents were applied daily to gelfoam sponges on the CAM. Images were recorded daily over 72 h and scored blindly according to a modified version Intensity Scoring as previously described (Ribatti, Nico et al. 2006). Additional details regarding methods are provided in the Methods and Materials section of Example 1.

[8] = system: HUVEC; experiment: Transwell migration assay; type: cell-based, human; settings: 100 nM protein in migration compartment, 4 h
Method: Transwell Migration Assay—
Migration was assessed using transwell inserts (Svensson, Kucharzewska et al. 2011). […] Cultures were incubated for 4 h, fixed in 10% formalin, and stained with 10 μg/ml DAPI solution (Roche) following removal of cells from the top layer of the chamber with a cotton swab. Migrated cells were imaged using a 4× objective on the Olympus IX70 Inverted microscope (Olympus). DAPI-stained nuclei were counted using ImageJ software.

**Q.** What does the source list for `C[C@@H]1C[C@H](C)C[C@H](C)[C@@H](O)CC(=O)O[C@H]([C@@H]2CCC[C@H]2C(=O)O)C/C=C/C=C(/C#N)[C@H](O)[C@@H](C)C1` [borrelidin]?
**A.** Ap4G synthesis, inhibition (qualitative) [1]: at least partially inhibited; Ki [2]: 4.6 nM; HIF-1α transcription ([3]; SK-OV3 cells responding to hypoxia): no change in HIF-1α transcription; HIF-1α protein stabilization [3]: reduce HIF-1α stabilization; HIF-1α protein stabilization ([3]; listed as BC144): diminished the levels of HIF-1α protein stabilization; Ap4A synthesis, inhibition (qualitative) ([4]; human TARS): at least partially inhibited; decrease in Ap4A formation activity ([4]; wildtype TARS): 59.4%; change of TARS GTPase activity upon treatment with inhibitor [5]: no observable change

**Q.** For “LARS: N-terminal HIS6-tagged human leucyl tRNA synthetase purified from E. coli”, which “LARS enzyme activity (conversion of 32P-ATP to AMP)” value [6] is on record?
**A.** exhibits enzyme activity

**Q.** And the “CAM vessel formation / vascularity, effect of applied synthetase” value [7]?
**A.** no observable effect; also recorded: no effect on angiogenesis

**Q.** And the “migration of endothelial cells” value [8]?
**A.** did not affect migration
